Test results published in patent publication US11667651B2, “Aminopyridine derivatives as phosphatidylinositol phosphate kinase inhibitors” (HiberCell, Inc., priority 2017, dated 2023).

Tests used:
PIP4K2A = molecular target: T1, PIP4K2A (Homo sapiens, UniProt P48426); assay: Kinase Assay PIP4K2 A (Table 2); format: biochemical; parameters: 4 nM PIP4K2A (full length protein, SignalChem); purchased SignalChem; conditions: compounds listed under IC50 bins
T1 sequence (P48426 1-406): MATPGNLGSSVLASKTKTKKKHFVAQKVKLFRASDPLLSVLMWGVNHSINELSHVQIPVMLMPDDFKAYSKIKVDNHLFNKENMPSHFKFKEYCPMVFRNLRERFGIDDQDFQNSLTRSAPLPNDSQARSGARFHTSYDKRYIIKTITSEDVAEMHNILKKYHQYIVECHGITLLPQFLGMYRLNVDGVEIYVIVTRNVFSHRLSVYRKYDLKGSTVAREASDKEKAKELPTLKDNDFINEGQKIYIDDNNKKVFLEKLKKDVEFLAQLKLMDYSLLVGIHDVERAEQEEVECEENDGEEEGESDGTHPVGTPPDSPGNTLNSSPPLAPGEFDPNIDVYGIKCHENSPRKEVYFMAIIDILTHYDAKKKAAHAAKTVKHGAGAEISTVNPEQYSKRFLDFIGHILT
Method: Dilution series of the compounds were prepared in DMSO at 100 times the final assay concentration (n1=n0/3 in 10 points). The compounds were further diluted to three times the assay concentration in assay buffer (20 mM MOPS pH 7.2, 25 mM magnesium chloride, 0.005% Tween 20). 6 μL of the diluted compounds were added to a 384 well assay plate followed by 9 μL of a mix consisting of 4 nM PIP4K2A (full length protein, SignalChem) and 100 μM PI(5)P diC8 (Tebu-Bio). Enzyme and compounds were pre-incubated at room temperature for 15 minutes.
Then 3 μL of a solution containing 60 μM ATP (Promega) in assay buffer was added to the wells containing compound and enzyme and mixing was performed by pipetting several times. The reaction was incubated at room temperature for 1 h. Then 18 μL of ADP-Glo™ Reagent (Promega) was added to stop the kinase reaction and deplete the unconsumed ATP, mixing was performed by pipetting several times. The plate was incubated at room temperature for 40 minutes before addition of 36 μL of Kinase Detection Reagent (Promega) to convert ADP to ATP and introduce luciferase and luciferin to detect ATP. The reaction was incubated at room temperature for 40 minutes before the luminescence was measured in a in a Victor 3V 1420 multilabel counter (Perkin Elmer).
Percent inhibition of the compounds as compared to dimethyl sulfoxide treated control samples was calculated. Compound concentration versus percent inhibition were fitted to generate IC50 values.

PIP4K2B = molecular target: T2, PIP4K2B (Homo sapiens, UniProt P78356); assay: Trans-FI P kinase assay PIP4K2B (Table 4); format: biochemical; conditions: compounds listed under IC50 bins; read-out: Trans-FI P kinase assays: PIP4K2B IC50
T2 construct: made in house; host or cells: E. coli
T2 sequence (P78356 1-416): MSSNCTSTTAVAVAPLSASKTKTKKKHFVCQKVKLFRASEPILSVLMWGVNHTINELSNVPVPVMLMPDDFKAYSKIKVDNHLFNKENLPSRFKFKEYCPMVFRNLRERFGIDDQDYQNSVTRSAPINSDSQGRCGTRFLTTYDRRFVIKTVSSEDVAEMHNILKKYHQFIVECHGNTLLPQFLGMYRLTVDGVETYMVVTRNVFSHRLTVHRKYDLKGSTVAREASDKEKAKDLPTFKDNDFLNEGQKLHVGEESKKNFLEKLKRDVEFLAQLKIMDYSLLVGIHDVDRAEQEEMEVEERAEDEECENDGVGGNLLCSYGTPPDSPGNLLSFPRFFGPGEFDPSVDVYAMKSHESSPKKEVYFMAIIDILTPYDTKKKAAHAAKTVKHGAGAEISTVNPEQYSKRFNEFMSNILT
Source text: GST tagged PIP4KtypeIIA and B enzymes were overexpressed in E. Coli and purified to >80% homogeneity. Phosphatidyl inositol-5-phosphate (PI5P, Cat. #850152, Avanti Polar Lipids Inc.) was used as the lipid substrate and phosphatidyl ethanolamine (DOPE 18:1, Cat. #850725, Avanti Polar Lipids Inc.) was used as the carrier lipid for assays. Ultrapure ATP and GTP was purchased from Bellbrooke Labs. ADP Glo reagents were obtained from Promega. Transcreener FI reagent was obtained from Bellbrooke labs.
GST-tagged PIP4KtypeIIB (3.4 μL, 2.77 mg/mL) was diluted to 5 mL using HNE buffer to yield 5× enzyme stock (25 nM)
Lipid Preparation: In a 10 mL pyrex glass vial, […] were suspended in 2.5 mL of HEPES buffer mix and 2.5 mL of H:E buffer. The contents were mixed and sonicated for 3 min to yield a translucent lipid stock.
Compound Preparation: Compounds were stored as 5 mM stocks in neat DMSO as room temperature in glass vials. 5 mM stocks were diluted to 2 mM and then serially diluted (3×) in neat DMSO in 96 well polypropylene plates. From the serially diluted stocks, 3 μL was delivered into 250 μL of 25% DMSO (in water) to generate 5× compound stocks. Typically, the highest compound conc. was 24 μM.
The assay volume was kept at 25 μL. To each well of the reaction plate, 10 μL of lipid stock (1:1 ratio PI5P:DOPE) was delivered. This was followed by the addition of 5 μL of compound in 25% DMSO. Then, to each well, 5 μL of 25 nM (5×) typeIIB enzyme was delivered. The contents were mixed well and incubated for 1 h at 27° C. After 1 h, reaction was initiated by adding 5 μL of 500 μM GTP and the contents were mixed well with a multi-channel pipetteman. The final concentration of the reagents are as follows: 50 mM HEPES, pH 7.3, 10 mM MgCl2, 20 mM NaCl, 0.01% v/v triton-X100, 5% DMSO, 100 μM GTP, 80 μM (2 μg) PI5P, 2 μg DOPE, and 5 nM PIP4KIIB Typically, the highest conc. of compounds was 4.8 μM and the lowest conc. was 0.
After 2 h, the reaction was quenched by adding 25 μL of transcreener FI reagent. The contents were incubated at rt for 1 h and the Fluorescence (Ex: 584 Em: 623) was read using Molecular Devices Paradigm plate reader. […] The blanks were averaged and subtracted from all other wells. Using a calibration curve, RFU was converted to μM GDP (product). IC50 was calculated by plotting the residual activity (expressed as % No inhibitor control) vs. log [Inh. conc.]

IC50 (PIP4K2A) [nM]	IC50 (PIP4K2B) [nM]	SMILES
100 to 1000	> 1000	CN(C)C(=O)c1ccc(-c2ccc(Nc3cnc4c(c3)NC(=O)CO4)nc2)cc1 [Example 88, N,N-dimethyl-4-(6-((2-oxo-2,3-dihydro-1H-pyrido[2,3-b][1,4]oxazin-7-yl)amino)pyridin-3-yl)benzamide]
1 to 10	10 to 100	CN(C)C(=O)c1ccc(-c2ccc(Nc3cnc4c(c3)N(C(=O)C3CC3)CCO4)nc2)cc1 [Example 90, 4-(6-((1-(cyclopropanecarbonyl)-2,3-dihydro-1H-pyrido[2,3-b][1,4]oxazin-7-yl)amino)pyridin-3-yl)-N,N-dimethylbenzamide]
10 to 100	10 to 100	CC(=O)OC(C)C(=O)N1CCOc2ncc(Nc3ccc(-c4ccc(C(=O)N(C)C)cc4)cn3)cc21 (stereo not drawn) [Example 91, 1-(7-((5-(4-(dimethylcarbamoyl)phenyl)pyridin-2-yl)amino)-2,3-dihydro-1H-pyrido[2,3-b][1,4]oxazin-1-yl)-1-oxopropan-2-yl acetate]
1 to 10	10 to 100	CC(O)C(=O)N1CCOc2ncc(Nc3ccc(-c4ccc(C(=O)N(C)C)cc4)cn3)cc21 (stereo not drawn) [Example 92, 4-(6-((1-(2-hydroxypropanoyl)-2,3-dihydro-1H-pyrido[2,3-b][1,4]oxazin-7-yl)amino)pyridin-3-yl)-N,N-dimethylbenzamide]
1 to 10	10 to 100	COC(=O)N1CCOc2ncc(Nc3ccc(-c4ccc(C(=O)N(C)C)cc4)cn3)cc21 [Example 93, methyl 7-((5-(4-(dimethylcarbamoyl)phenyl)pyridin-2-yl)amino)-2,3-dihydro-1H-pyrido[2,3-b][1,4]oxazine-1-carboxylate]
1 to 10	10 to 100	CN(C)C(=O)c1ccc(-c2ccc(Nc3cnc4c(c3)N(C(=O)C(C)(C)C)CCO4)nc2)cc1 [Example 97, N,N-dimethyl-4-(6-((1-pivaloyl-2,3-dihydro-1H-pyrido[2,3-b][1,4]oxazin-7-yl)amino)pyridin-3-yl)benzamide]
10 to 100	10 to 100	CN(C)C(=O)c1ccc(-c2ccc(Nc3cncc(NC(=O)c4cccc(N)c4)c3)nc2)cc1 [Example 99, 4-(6-((5-(3-aminobenzamido)pyridin-3-yl)amino)pyridin-3-yl)-N,N-dimethylbenzamide]
100 to 1000	> 1000	CN(C)C(=O)c1ccc(-c2ccc(Nc3cncc(N)c3)nc2)cc1 [Example 115, 4-(6-((5-aminopyridin-3-yl)amino)pyridin-3-yl)-N,N-dimethylbenzamide]
100 to 1000	10 to 100	CN1C[C@H]2COc3ncc(Nc4ccc(-c5ccc(N6CCCC6=O)cc5)cn4)cc3N2S1(=O)=O [Example 175, (S)-1-(4-(6-((2-methyl-1,1-dioxido-2,3,3a,4-tetrahydropyrido[2,3-b][1,2,5]thiadiazolo[2,3-d][1,4]oxazin-8-yl)amino)pyridin-3-yl)phenyl)pyrrolidin-2-one]
1 to 10	1 to 10	COCc1nc(Nc2cnc3c(c2)N2C(=O)C4(CC4)C[C@H]2CO3)ncc1-c1ccc(N2CCCC2=O)cc1 [Example 202, (S)-2′-((4-(methoxymethyl)-5-(4-(2-oxopyrrolidin-1-yl)phenyl)pyrimidin-2-yl)amino)-6a′,7′-dihydro-6′H,9′H-spiro[cyclopropane-1,8′-pyrido[2,3-b]pyrrolo[1,2-d][1,4]oxazin]-9′-one]
≤ 1	1 to 10	CC(C)c1nc(Nc2cnc3c(c2)N2C(=O)CC[C@H]2CO3)ncc1-c1ccc(N2CCCC2=O)cc1 [Example 215, (S)-2-((4-isopropyl-5-(4-(2-oxopyrrolidin-1-yl)phenyl)pyrimidin-2-yl)amino)-6,6a,7,8-tetrahydro-9H-pyrido[2,3-b]pyrrolo[1,2-d][1,4]oxazin-9-one]
100 to 1000		CN(C)C(=O)c1ccc(-c2cnc(Nc3cccnc3)nc2)cc1 [Example 264, N,N-dimethyl-4-(2-(pyridin-3-ylamino)pyrimidin-5-yl)benzamide]
100 to 1000	10 to 100	Cn1cnnc1N1CC=C(c2ccc(Nc3cnc4c(c3)N3C(=O)CC[C@H]3CO4)nc2)CC1 [Example 274, (S)-2-((1′-(4-methyl-4H-1,2,4-triazol-3-yl)-1′,2′,3′,6′-tetrahydro-[3,4′-bipyridin]-6-yl)amino)-6,6a,7,8-tetrahydro-9H-pyrido[2,3-b]pyrrolo[1,2-d][1,4]oxazin-9-one]
100 to 1000	10 to 100	Cn1cnnc1N1CCN(c2ccc(Nc3cnc4c(c3)N3C(=O)CC[C@H]3CO4)nc2)CC1 [Example 275, (S)-2-((5-(4-(4-methyl-4H-1,2,4-triazol-3-yl)piperazin-1-yl)pyridin-2-yl)amino)-6,6a,7,8-tetrahydro-9H-pyrido[2,3-b]pyrrolo[1,2-d][1,4]oxazin-9-one]
1 to 10	1 to 10	Cc1ccnnc1-c1ccc(-c2ccc(Nc3cnc4c(c3)N3C(=O)CC[C@H]3CO4)nc2)cc1 [Example 276, (S)-2-((5-(4-(4-methylpyridazin-3-yl)phenyl)pyridin-2-yl)amino)-6,6a,7,8-tetrahydro-9H-pyrido[2,3-b]pyrrolo[1,2-d][1,4]oxazin-9-one]
1 to 10	10 to 100	Cc1cnoc1-c1ccc(-c2ccc(Nc3cnc4c(c3)N3C(=O)CC[C@H]3CO4)nc2)cc1 [Example 277, (S)-2-((5-(4-(4-methylisoxazol-5-yl)phenyl)pyridin-2-yl)amino)-6,6a,7,8-tetrahydro-9H-pyrido[2,3-b]pyrrolo[1,2-d][1,4]oxazin-9-one]
≤ 1	1 to 10	Cc1cnnn1-c1ccc(-c2cnc(Nc3cnc4c(c3)N3C(=O)CC[C@H]3CO4)nc2C(C)C)cc1 [Example 278, (S)-2-((4-isopropyl-5-(4-(5-methyl-1H-1,2,3-triazol-1-yl)phenyl)pyrimidin-2-yl)amino)-6,6a,7,8-tetrahydro-9H-pyrido[2,3-b]pyrrolo[1,2-d][1,4]oxazin-9-one]
